Reference: PubChem BioAssay (NCI)
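Grown in 96-well plates, cells were treated for 48 hours with each compound at five concentrations. Insufficient inhibition: endpoint recorded as highest concentration tested. TGI is the concentration that stops growth completely.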

Key:
Experiment in all cases: NCI tumour cell line growth inhibition, 48 h
[1] = system: HCT-15 colon
[2] = system: 786-0 renal
[3] = system: RXF-631 renal
[4] = system: SF-295 CNS
[5] = system: HT29 colon
[6] = system: HOP-18 NSCLC
[7] = system: KM20L2 colon
[8] = system: SNB-78 CNS
[9] = system: SF-268 CNS
[10] = system: SN12C renal
[11] = system: A498 renal
[12] = system: IGROV1 ovarian
[13] = system: DMS 114 small cell lung
[14] = system: SW-620 colon
[15] = system: ACHN renal
[16] = system: EKVX NSCLC
[17] = system: KM12 colon
[18] = system: HCC-2998 colon
[19] = system: U251 CNS
[20] = system: SF-539 CNS
[21] = system: SNB-75 CNS
[22] = system: CCRF-CEM leukemia
[23] = system: SNB-19 CNS
[24] = system: XF 498 CNS
[25] = system: HOP-62 NSCLC
[26] = system: OVCAR-8 ovarian
[27] = system: M19-MEL melanoma
[28] = system: SK-OV-3 ovarian
[29] = system: CAKI-1 renal
[30] = system: M14 melanoma
[31] = system: MOLT-4 leukemia
[32] = system: NCI-H460 lung
[33] = system: OVCAR-5 ovarian
[34] = system: MALME-3M melanoma
[35] = system: SK-MEL-28 melanoma
[36] = system: HCT-116 colon
[37] = system: SK-MEL-5 melanoma
[38] = system: OVCAR-4 ovarian
[39] = system: LXFL 529 NSCLC
[40] = system: UO-31 renal
[41] = system: OVCAR-3 ovarian
[42] = system: HOP-92 NSCLC
[43] = system: TK-10 renal
[44] = system: K-562 leukemia
[45] = system: DMS 273 small cell lung
[46] = system: DLD-1 colon
[47] = system: NCI-H226 lung
[48] = system: SK-MEL-2 melanoma
[49] = system: UACC-62 melanoma
[50] = system: COLO 205 colon
[51] = system: NCI-H23 lung
[52] = system: LOX IMVI melanoma
[53] = system: UACC-257 melanoma
[54] = system: RPMI-8226 leukemia
[55] = system: A549 NSCLC
[56] = system: HL-60(TB) leukemia

## CC1=NN(C(=O)CC(=O)NC(=O)CC(=O)Nc2ccccc2F)C(=O)C1N=Nc1ccc([N+](=O)[O-])cc1 (stereo not drawn)
[1]
  TGI: > 100 µM
[2]
  TGI: 64.6 µM
[3]
  TGI: > 100 µM
[4]
  TGI: > 100 µM
[5]
  TGI: 45.9 µM
[6]
  TGI: > 100 µM
[7]
  TGI: > 100 µM
[8]
  TGI: > 100 µM
[9]
  TGI: > 100 µM
[10]
  TGI: > 100 µM
[11]
  TGI: 94.8 µM
[12]
  TGI: > 100 µM
[13]
  TGI: 41 µM
[14]
  TGI: 41.1 µM
[15]
  TGI: > 100 µM
[16]
  TGI: 96.2 µM
[17]
  TGI: > 100 µM
[18]
  TGI: > 100 µM
[19]
  TGI: 50 µM
[20]
  TGI: > 100 µM
[21]
  TGI: 98.2 µM
[22]
  TGI: 63.6 µM
[23]
  TGI: > 100 µM
[24]
  TGI: 70.9 µM
[25]
  TGI: > 100 µM
[26]
  TGI: > 100 µM
[27]
  TGI: 92.8 µM
[28]
  TGI: > 100 µM
[29]
  TGI: > 100 µM
[30]
  TGI: > 100 µM
[31]
  TGI: 77.7 µM
[32]
  TGI: > 100 µM
[33]
  TGI: > 100 µM
[34]
  TGI: > 100 µM
[35]
  TGI: > 100 µM
[36]
  TGI: 35.5 µM
[37]
  TGI: > 100 µM
[38]
  TGI: > 100 µM
[39]
  TGI: > 100 µM
[40]
  TGI: 84.2 µM
[41]
  TGI: 81.3 µM
[42]
  TGI: > 100 µM
[43]
  TGI: > 100 µM
[44]
  TGI: 65.4 µM
[45]
  TGI: > 100 µM
[46]
  TGI: > 100 µM
[47]
  TGI: > 100 µM
[48]
  TGI: > 100 µM
[49]
  TGI: > 100 µM
[50]
  TGI: 69.2 µM
[51]
  TGI: > 100 µM
[52]
  TGI: 35.8 µM
[53]
  TGI: 76.1 µM
[54]
  TGI: 46.3 µM
[55]
  TGI: 86.2 µM

## COc1ccc(S(=O)(=O)N/N=C/c2cc(I)cc([N+](=O)[O-])c2O)cc1OC
[1]
  TGI: > 100 µM
[56]
  TGI: 57.5 µM
[2]
  TGI: > 100 µM
[3]
  TGI: > 100 µM
[4]
  TGI: > 100 µM
[5]
  TGI: > 100 µM
[6]
  TGI: 68.5 µM
[7]
  TGI: > 100 µM
[8]
  TGI: 65.1 µM
[10]
  TGI: > 100 µM
[11]
  TGI: > 100 µM
[12]
  TGI: > 100 µM
[14]
  TGI: > 100 µM
[15]
  TGI: > 100 µM
[16]
  TGI: > 100 µM
[17]
  TGI: > 100 µM
[18]
  TGI: > 100 µM
[19]
  TGI: > 100 µM
[22]
  TGI: > 100 µM
[23]
  TGI: 88.3 µM
[24]
  TGI: 51.1 µM
[26]
  TGI: > 100 µM
[27]
  TGI: 99.2 µM
[28]
  TGI: 92.2 µM
[29]
  TGI: 85.3 µM
[30]
  TGI: > 100 µM
[31]
  TGI: 64.8 µM
[32]
  TGI: > 100 µM
[33]
  TGI: > 100 µM
[34]
  TGI: 83.9 µM
[37]
  TGI: 38.3 µM
[38]
  TGI: 70.3 µM
[39]
  TGI: 70.3 µM
[40]
  TGI: 53.4 µM
[41]
  TGI: 66.3 µM
[42]
  TGI: 46 µM
[43]
  TGI: > 100 µM
[44]
  TGI: > 100 µM
[45]
  TGI: > 100 µM
[46]
  TGI: > 100 µM
[47]
  TGI: 62.1 µM
[48]
  TGI: 45.6 µM
[49]
  TGI: 59.7 µM
[50]
  TGI: > 100 µM
[52]
  TGI: > 100 µM
[53]
  TGI: > 100 µM
[54]
  TGI: 65.1 µM
[55]
  TGI: > 100 µM
